Results as given in ChEMBL document CHEMBL1146485, “Plant substances as anti-HIV agents selected according to their putative mechanism of action” (J Nat Prod, 2004).

Columns and labels:
[1] = test system: Human immunodeficiency virus 1; test: Selectivity for HIV1 integrase over HIV1 reverse transcriptase
[2] = Elimination half life in po dosed human; type: ADME, organism-based; details: in vivo, read-out: beta t1/2 (converted)

## O=C(/C=C/c1ccc(O)c(O)c1)O[C@@H]1C[C@](O)(C(=O)O)C[C@@H](OC(=O)/C=C/c2ccc(O)c(O)c2)[C@H]1O
[1]
  fold change (FC): 10

## O=C(/C=C/c1ccc(O)c(O)c1)O[C@@H](C(=O)O)[C@@H](OC(=O)/C=C/c1ccc(O)c(O)c1)C(=O)O
[1]
  fold change (FC): 10

## CCCc1cc(=O)oc2c3c(c4c(c12)OC(C)(C)C=C4)O[C@H](C)[C@@H](C)[C@@H]3O [CALANOLIDE A]
[2]
  half-life: 15 h
